Laboratory results reported in US6057371A, “Sigma receptor ligands and the use thereof” (Virginia Commonwealth University, priority 1992, dated 2000).
Where a name gives a salt, the structure may show the parent alone.

Test system: sigma receptor
Experiment: Sigma receptor binding, [^3 H]DTG, brain membranes (both sigma-1 and sigma-2 sites)
Set-up: species or system guinea pig
Settings: Example 5
Procedure: Sigma receptor binding assays using guinea pig brain membrane homogenates and the radioligand [^3 H]DTG were conducted as described by Weber et al.. […] Briefly, frozen whole guinea-pig brains (Biotrol, Indianapolis, Ind.) were homogenized in 10 volumes (w/v) of ice-cold 320 mM sucrose using a Brinkman polytron. The homogenate was centrifuged at 1,000× g for 20 minutes at 4° C. The supernatant was centrifuged at 20,000× g for 20 minutes at 4° C. The resulting pellet was resuspended in 10 initial volumes of 50 mM Tris/HCl buffer at pH 7.4 and centrifuged at 20,000× g for 20 minutes at 4° C. The resulting pellet was resuspended in 5 initial volumes ice-cold 50 mM Tris/Hcl […], and the final volume was adjusted to yield a protein concentration of 3 mg/ml. Aliquots of 20-ml were stored at -70° C. until used, with no detectable loss of binding.
The protein concentration in the 1-ml final incubation volume was 800 ug/ml, corresponding to 32 mg of brain tissue (original wet weight) and to a tissue concentration within the linear range for specific binding. […] Incubations were terminated after 90 minutes at room temperature by addition of 4 ml of ice-cold 50 mM Tris/HCl (pH 7.4) and rapid filtration of the membrane suspension through Whatman GF/B glass-fiber filters under vacuum, using a 48-well cell harvester (Brandel). The filters were washed 2 times with 4 ml of 50 mM Tris/HCl (pH 7.4). Each filter was suspended in 10 ml Cytoscint (ICI), and radioactivity was measured by liquid scintillation spectrometry at a counting efficiency of approximately 50%. IC50 values were determined by non-linear regression analyis.
Further sigma receptor binding assays against [^3 H]DTG and 5HT-1A binding assays were conducted according to the procedure outlined in the previous examples.
Radioligand Binding. […] Briefly, membranes (P2 microsomal fraction) were diluted 1:3 with 50 mM Tris HCl (pH 7.4) and 0.4 mL was combined with 50 μL [^3 H]DTG (1-2 nM final concentration) and 50 μL of competing drug or buffer. After 90 min at room temperature, incubation was terminated by rapid filtration under vacuum through Whatman GF/B glass fiber filters using a Brandel 48-well cell harvester. Filters were washed three times with 5 mL of cold Tris HCl buffer and each filter was suspended in 5 mL of Cytoscint (ICN Biomedical). Radioactivity was measured by liquid scintillation spectrometry at a counting efficiency of 50%.

Compound | affinity for the sigma receptor, words
CCCc1ccc(CC(C)N(C)CCCc2ccccc2)cc1 (centres unmarked) | highest and most selective affinity for the sigma receptor

Same assay, conditions: Example 6

Compound | change in sigma affinity, words
CN(CCCCCC1CCCCC1)CC1CCCCC1.Cl [Compound 152, N-Methyl-N-cyclohexylmethyl-5-cyclohexylpentylamine Hydrochloride] | doubles affinity
CN(CCCCCc1ccccc1)CCCc1ccccc1 [Compound 136] | doubles affinity

Same assay, conditions: Examples 5 and 6; [^3 H]DTG

Compound | change in sigma receptor affinity vs. analog
O=C(O)C(=O)O.c1ccc(CCCCCNc2ccccc2)cc1 [Compound 135, N-Phenyl-5-phenyl pentyl amine Hydrogen Oxal ate] | 6 fold

Same assay, conditions: Table 6; [^3 H]DTG

Compound | IC50
c1ccc(CCCNCCc2ccc3ccccc3c2)cc1 [Compound 88] | 53.4 nM
O=C(CCCN1CCCCC1)c1ccc(F)cc1 [Compound 175] | 42.9 nM
CN1CCc2ccccc2C(c2ccccc2)C1 (centres unmarked) [Compound 102] | 6690 nM
O=C1c2ccccc2C(=O)N1CCN1CCN(c2ccccc2)CC1 [Compound 95] | 17000 nM
O=C(CCCCN1CCC(c2ccc(Cl)cc2)CC1)c1ccc(Cl)cc1 [Compound 183] | 1.97 nM
c1ccc(CCCCCN2CC3CCC(CC3)C2)cc1 [Compound 190] | 1.07 nM
CCCN(CCCc1ccccc1)[C@@H](C)Cc1ccccc1 [Compound 133] | 6.44 nM
COc1cccc(C(=O)CCCCN2CCCCC2)c1 [Compound 169] | 22.8 nM
C(/C=C/c1ccc2c(c1)OCO2)=C\CN1CCCCC1 [Compound 191] | 8.14 nM
c1ccc(CCCCCN2CCN(CCCCCc3ccccc3)CC2)cc1 [Compound 138] | 2.67 nM
O=C(CCCCN1CCC(O)(c2ccc(Cl)cc2)CC1)c1ccc(F)cc1 [Compound 179] | 2.82 nM
COc1ccccc1CCNCCCCCc1ccccc1 [Compound 144] | 4.39 nM
O=C(CCCCN1CCCCC1)c1ccc(F)cc1 [Compound 177] | 7.37 nM
OC1(c2ccccc2)CC2CCC(C1)N2CCCCCc1ccccc1 (centres unmarked) [Compound 153] | 2.21 nM
c1ccc(C2CCNCC2)cc1 [Compound 58] | 2050 nM
COc1ccccc1C1(O)CCNCC1 [Compound 61] | 14800 nM
C(CCNCC1CCCCC1)CCC1CCCCC1 [Compound 151, H-Cyclohexylmethyl-5-cyclohexylpentylamine Hydrochloride] | 1.39 nM
O=C(CCCCN1CCCCC1)c1cccc(Cl)c1 [Compound 170] | 4.18 nM
O=C(c1ccccc1)N1CCNCC1 [Compound 54] | 11800 nM
Oc1cccc(CCNCCCCCc2ccccc2)c1 [Compound 172, N-[2-(3-hydroxyphenyl)ethyl]-5-phenylpentylamine Hydrobromide] | 7.46 nM
Clc1ccc(CCCCCN2CCC(c3ccccc3)CC2)cc1 [Compound 167] | 1.96 nM

Compound | IC50
c1ccc(CNCc2ccccc2)cc1 [Compound 109] | 184 nM
O=C(O)C(=O)O.c1ccc(CCCCCNc2ccccc2)cc1 [Compound 135, N-Phenyl-5-phenyl pentyl amine Hydrogen Oxal ate] | 13.5 nM
CC(C)(C)C1(O)CCN(CCc2ccccc2)CC1 [Compound 149] | 21.5 nM
COc1ccc(CCCCCN2CCCCC2)cc1 [Compound 164] | 5.19 nM
COc1ccc(C(=O)CCCCN2CCC(c3ccccc3)CC2)cc1 [Compound 162] | 0.9 nM
Oc1ccccc1CCNCCCCCc1ccccc1 [Compound 173] | 17.2 nM
O=C1c2ccccc2C(=O)N1CCCCN1CCN(Cc2ccccc2)CC1 [Compound 119] | 21.4 nM
COc1ccc(C(=O)CCCCN2CCCCC2)cc1 [Compound 161] | 10.9 nM
COc1ccc(CCCCCN2CCC(c3ccccc3)CC2)cc1 [Compound 165] | 1.27 nM
O=C(CCCCN1CCC(c2ccccc2)CC1)c1ccc(Cl)cc1 [Compound 160] | 0.62 nM
CCCC(Cc1ccccc1)NCCCc1ccccc1 (centres unmarked) [Compound 100] | 25.6 nM
CCN(CC)CCOC(=O)C(c1ccccc1)c1ccccc1 [Compound 187] | 50.6 nM
CN1CCC(OC(c2ccccc2)c2ccccc2)CC1 [Compound 186] | 656 nM
CCCCCCN(C)CCc1ccccc1 [Compound 130, N-Methyl-N-hexyl-2-phenylethylamine Hydrogen Oxalate] | 4.23 nM
c1ccc(CN2CCCCC2)cc1 [Compound 147] | 117 nM
O=C(CCCCN1CCCCC1)C1CCCC1 [Compound 189] | 13.5 nM
CN1CCC(O)(c2ccc(Cl)cc2)CC1 [Compound 156] | 131 nM
C1CCC(CCCCCN2CCCCC2)CC1 [Compound 150] | 0.96 nM
O=C(CCCCN1CCC(c2ccccc2)CC1)c1cccc(Cl)c1 [Compound 171] | 1.19 nM
CCC[C@@H](Cc1ccccc1)N(C)CCCc1ccccc1 [Compound 116] | 10.1 nM
O=C(CCCCN1CCCCC1)c1ccc(Cl)cc1 [Compound 159] | 1.3 nM

Compound | IC50
O=C(CCCCN1CCC(c2ccccc2)CC1)c1ccccc1 [Compound 166] | 1.03 nM
O=C(CCCCN1CCC(c2ccccc2)CC1)c1ccc(F)cc1 [Compound 178] | 0.896 nM
CN1CCC(O)(c2ccccc2)CC1 [Compound 155] | 1870 nM
COc1cccc(C(=O)CCCCN2CCC(c3ccccc3)CC2)c1 [Compound 174] | 1.1 nM
CCCNC1CCc2ccccc2C1 (centres unmarked) [Compound 63] | 763 nM
OC1(c2ccccc2)CCN(CCc2ccccc2)CC1 [Compound 148] | 6.43 nM
c1cnc(N2CCNCC2)nc1 [Compound 107] | 10000 nM
COc1cccc(CCNCCCCCc2ccccc2)c1 [Compound 145] | 1.63 nM
O=C(CCCCN1CCC(c2ccc(F)cc2)CC1)c1ccc(Cl)cc1 [Compound 181] | 1.08 nM
O=C(CCCCN1CC=C(c2ccc(Cl)cc2)CC1)c1ccc(Cl)cc1 [Compound 182] | 4.68 nM
CCN(CC)CCOC(=O)C1c2ccccc2-c2ccccc21 [Compound 188] | 174 nM
CN1C2CCC1CC(O)(c1ccccc1)C2 (centres unmarked) [Compound 154] | 3960 nM
CN(CCCCCC1CCCCC1)CC1CCCCC1.Cl [Compound 152, N-Methyl-N-cyclohexylmethyl-5-cyclohexylpentylamine Hydrochloride] | 1.76 nM
CCCCCCN(C)CCC [Compound 131, N-Methyl-N-propylhexylamine Hydrogen Oxalate] | 46.9 nM
OC1(c2ccccc2)CCNC1 (centres unmarked) [Compound 157] | 6110 nM
COc1ccc(CCNCCCCCc2ccccc2)cc1 [Compound 146] | 2.38 nM
O=C(CCCCN1CCC(c2ccc(Cl)cc2)CC1)c1ccc(Cl)c(Cl)c1 [Compound 184] | 1.98 nM
CN(CCCCCc1ccccc1)CCCc1ccccc1 [Compound 136] | 1.78 nM
CN(CCc1ccccc1)CCc1ccccc1 [Compound 108] | 37.9 nM
O=C(CCCCN1CC=C(c2ccc(F)cc2)CC1)c1ccc(Cl)cc1 [Compound 180] | 2.24 nM

Same assay, conditions: Table 7; Phenyl-(CH2)x -NH--(CH2)y -Phenyl; read-out: Ki

Compound | Ki
c1ccc(CNCc2ccccc2)cc1 [x=1, y=1] | 175 nM
c1ccc(CCCCCCNCCCc2ccccc2)cc1 [x=3, y=6] | 2.6 nM
c1ccc(CCCCNCCCCc2ccccc2)cc1 [x=4, y=4] | 6.7 nM
c1ccc(CCCCNCCCc2ccccc2)cc1 [x=3, y=4] | 7 nM

Same assay, conditions: running text, Examples 5 and 6; read-out: sigma receptor Ki

Compound | Ki
N-(3-phenylpropyl)isopropylamine | 22 nM
O=C(O)C(=O)O.c1ccc(CCCCCNc2ccccc2)cc1 [Compound 135, N-Phenyl-5-phenyl pentyl amine Hydrogen Oxal ate] | 12 nM
CCCN(C)CCCCCc1ccccc1 [Compound 122] | 2.4 nM
CCCCCCN(C)CCc1ccccc1 [Compound 130, N-Methyl-N-hexyl-2-phenylethylamine Hydrogen Oxalate] | 3.8 nM
CCCCCCN(C)CCC [Compound 131, N-Methyl-N-propylhexylamine Hydrogen Oxalate] | 45 nM

Biological target: T1, sigma-1 binding site (Cavia porcellus, UniProt Q60492)
T1 construct: Guinea pig whole membrane preparations (P2 microsomal fraction); from tissue; host or cells: guinea pig membranes (P2 microsomal fraction), as described by Weber et al; brain inferred from the sister test b489
T1 sequence (Q60492 whole entry): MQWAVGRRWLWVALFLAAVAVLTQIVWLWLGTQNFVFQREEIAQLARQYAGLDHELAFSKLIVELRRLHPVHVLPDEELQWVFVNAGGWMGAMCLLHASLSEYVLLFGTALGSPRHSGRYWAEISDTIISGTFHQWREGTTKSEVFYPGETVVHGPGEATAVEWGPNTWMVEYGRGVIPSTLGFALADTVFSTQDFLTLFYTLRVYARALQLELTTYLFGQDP
Experiment: biochemical
Set-up: species or system guinea pig
Settings: SIGMA-1 KI vs. 3H-PENTAZOCINE MEAN
Procedure: [^3 H]DTG was purchased from DuPont/NEN.
The radioactivity on the filters was determined by scintillation spectrometry at an efficiency of about 50% using Cytoscint (ICN) scintillation fluid.

Compound | Ki
CCN1CCC[C@H]1CNC(=O)c1c(OC)ccc(Br)c1OC [Remoxipride, reference compound] | 312 nM
O=C(CCCN1CCC2(CC1)C(=O)NCN2c1ccccc1)c1ccc(F)cc1 [Spiperone, reference compound] | 10000 nM
